From ChEMBL document CHEMBL3861948 (Medchemcomm, 2016)

Target: Mitogen-activated protein kinase 14 (Homo sapiens, UniProt Q16539)
Experiment: Inhibition of p38alpha in human THP1 cells assessed as suppression of LPS-induced TNFalpha secretion preincubated for 30 mins followed by LPS challenge measured after 2 hrs
Type: cell-based, THP-1

Sequence of Mitogen-activated protein kinase 14 (Q16539 whole entry): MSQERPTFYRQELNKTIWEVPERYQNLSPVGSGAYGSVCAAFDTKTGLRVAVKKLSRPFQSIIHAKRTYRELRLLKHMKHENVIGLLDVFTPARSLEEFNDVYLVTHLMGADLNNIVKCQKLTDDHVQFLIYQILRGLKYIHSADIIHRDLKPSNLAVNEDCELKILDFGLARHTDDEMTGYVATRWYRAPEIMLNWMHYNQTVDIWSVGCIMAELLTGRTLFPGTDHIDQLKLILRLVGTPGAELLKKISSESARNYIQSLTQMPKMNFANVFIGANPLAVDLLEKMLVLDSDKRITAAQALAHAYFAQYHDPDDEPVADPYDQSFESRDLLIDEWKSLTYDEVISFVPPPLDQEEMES

| SMILES | IC50 [nM] |
| --- | --- |
| CNC(=O)[C@H](Cc1cccc(C(F)(F)F)c1)NC(=O)c1ccc(CNC(=O)c2cnn(-c3ccccc3)c2N)cc1 | 46 |
| NC(=O)[C@H](CCC1CCCCC1)NC(=O)[C@H]1CC[C@H](CNC(=O)c2cnn(-c3ccccc3)c2N)CC1 | 44 |
